Values quoted from earlier work in patent US20030055013A1, “HCV combination therapy” (SCHERING CORPORATION, priority 2001, published 2003).

Legend:
[1] = per 1 mg (Goodman & Gilman)
[2] = monotherapy, patients with chronic hepatitis C, prior studies
[3] = tested on: chronic childhood cholestasis; conditions: 20-25 IU/kg/day (Sokool et al.)
[4] = stored between 2° and 8° C. and used within 24 hours of reconstitution
[5] = tested on: HIV patients; conditions: higher doses, PO, Phase I/II clinical trials (PharmaProjects)

Row | Compound | potency of 1 mg in IU of Vitamin E [1] | other results
1 | CC(=O)Oc1c(C)c(C)c2c(c1C)CC[C@@](C)(CCC[C@H](C)CCC[C@H](C)CCCC(C)C)O2 (racemic) [dl-alpha tocopheryl acetate] | one | 
2 | CC(=O)Oc1c(C)c(C)c2c(c1C)CC[C@@](C)(CCC[C@H](C)CCC[C@H](C)CCCC(C)C)O2 [d-alpha tocopheryl acetate] | 1.36 IU | 
3 | NC(=O)c1ncn([C@@H]2O[C@H](CO)[C@@H](O)[C@H]2O)n1 [Ribavirin, ribavirin] |  | patients with reduction in hemoglobin of greater than 4 g/dL [2]: 15.7 % of patients
4 | d-alpha-tocopheryl polyethylene glycol 1000 succinate [Vitamin E-TPGS] |  | safety and efficacy in chronic childhood cholestasis [3]: safe and effective
5 | interferon alfa |  | stability of reconstituted aqueous solutions [4]: stable
6 | Cc1c(C)c2c(c(C)c1OC(=O)CCC(=O)O)CC[C@@](C)(CCC[C@H](C)CCC[C@H](C)CCCC(C)C)O2 [d-alpha tocopheryl succinate] | 1.21 IU | 
7 | Cc1c(C)c2c(c(C)c1O)CC[C@@](C)(CCC[C@H](C)CCC[C@H](C)CCCC(C)C)O2 [d-alpha tocopherol] | 1.49 IU | 
8 | CC(C)(Sc1cc(C(C)(C)C)c(O)c(C(C)(C)C)c1)Sc1cc(C(C)(C)C)c(O)c(C(C)(C)C)c1 [Panavia, 4,4′-isopropylidenedithiobis-2,6-di-t-butylphenol] |  | CD4 levels [5]: stablized or slightly stabilized
